Test results published in patent US20110212978A1 (AstraZeneca AB, priority 2005, published 2011).

Experiments:
tumour growth = conditions: range of models, once-daily oral administration; cited from earlier work
VEGF RTK = conditions: cited from earlier work
MX-1 tumour xenografts = assay: MX-1 human tumour xenograft growth in female athymic mice; assay type: in vivo; conditions: female nude mice; for Day 14 Median tumour volume / Day 14 geometric mean tumour volume: Day 14 after implantation (randomisation, start of treatment), ZD6474 25 mg/kg/day p.o., pemetrexed 75 mg/kg i.p.; for Day 28 Median tumour volume / Day 28 geometric mean tumour volume: ZD6474 25 mg/kg/day p.o. once daily, pemetrexed 75 mg/kg i.p. once daily days 14-18 and 21-25
Description: Tumour implantation procedures were performed on mice of at least 5 weeks of age. Human tumour xenografts were grown in female athymic (nu/nu genotype, Swiss) mice. MX-1 tumour fragments were implanted into athymic mice and allowed to grow to 0.7-1 cm^3 to provide donor tumour tissue. The donor tumours were surgically excised and smaller tumour fragments (20-30 mg) were implanted subcutaneously (s.c.) in the right flanks of the experimental athymic mice. When the mean tumour volume reached 0.1-0.3 cm^3, randomisation was carried out. […] An additional group of animals received a combination of pemetrexed and ZD6474, using the same doses and schedules as used for single agent treatment.
Tumour volumes were assessed at least twice weekly by bilateral Vernier caliper measurement. Growth inhibition from the start of treatment was assessed by comparison of the differences in tumour volume between control and treated groups.
Experiments were conducted on female athymic mice (Swiss nu/nu genotype, >6 weeks of age). MX-1 human tumour xenografts were established in mice from tumour cell implants. The donor tumours were surgically excised when they reached a volume of 0.7-1 cm^3, divided into fragments and frozen until further use. At the start of the experiment, fragments (approximately 30 mg) were thawed and implanted (subcutaneously in the dorsal flank) in the experimental animals. Tumour volumes were assessed at least twice weekly by bilateral Vernier calliper measurements. Mice were randomised into treatment groups when the tumour volume reached 0.1-0.2 cm^3. […] An additional group of animals received a combination of ZD6474 and pemetrexed, using the same doses and schedules as used for single agent treatment.
Tumour growth inhibition (TGI) from the start of treatment was assessed by comparison of the differences in tumour volume between control and treated groups.

COc1cc2c(Nc3ccc(Br)cc3F)ncnc2cc1OCC1CCN(C)CC1 [ZD6474, 4-(4-bromo-2-fluoroanilino)-6-methoxy-7-(1-methylpiperidin-4-ylmethoxy)quinazoline]
Anti-tumour activity (tumour growth): broad-spectrum anti-tumour activity | Inhibition of VEGF RTK (VEGF RTK): potent inhibitor | Day 14 Median tumour volume (MX-1 tumour xenografts): 0.148 cm^3 | Day 14 geometric mean tumour volume (MX-1 tumour xenografts): 0.148 cm^3 | Day 28 Median tumour volume (MX-1 tumour xenografts): 0.967 cm^3 | Day 28 geometric mean tumour volume (MX-1 tumour xenografts): 0.702 cm^3

Nc1nc2[nH]cc(CCc3ccc(C(=O)N[C@@H](CCC(=O)[O-])C(=O)[O-])cc3)c2c(=O)[nH]1.[Na+].[Na+] [pemetrexed, L-Glutamic acid, N-[4-[2-(2-amino-4,7-dihydro-4-oxo-1H-pyffolo[2,3-d]pyrimidin-5-yl)ethyl]benzoyl]-, disodium salt, hetpahydrate]
Day 14 Median tumour volume (MX-1 tumour xenografts): 0.147 cm^3 | Day 14 geometric mean tumour volume (MX-1 tumour xenografts): 0.146 cm^3 | Day 28 Median tumour volume (MX-1 tumour xenografts): 0.794 cm^3 | Day 28 geometric mean tumour volume (MX-1 tumour xenografts): 0.751 cm^3
